The record followed here is patent publication US20260200943A1, “COMPOUNDS FOR TREATING CANCER” (Genesis Therapeutics, Inc., priority 2022, published 2026).

Each structure is given as a SMILES string. Read-outs that look alike come from different tables or passages of the source. Where only a bound is given, the exact number is not on record here.

The target of series [1] is T1, CDK2/CyclinA2 (Homo sapiens, UniProt P24941).
T1 construct: Wild-type, full length CDK2 in complex with wildtype, full length CyclinA2: Carna Cat #04-103; purchased Carna 04-103
The experiment in a line: CDK2/CyclinA2 ChEF Assay (Table A). The class given is biochemical. How it is done: 500 nL of 50× compound in 100% DMSO is added to a 384-well low volume, white assay plate. 19.5 μL of 1.3×CDK2/CyclinA2 (Wild-type, full length CDK2 in complex with wildtype, full length CyclinA2: Carna Cat #04-103 diluted in assay buffer (50 mM Hepes, 0.01% Brij-35, 10 mM MgCl2, 0.5 mM EGTA, 1% Glycerol, and 1.2 mM DTT) is added to the plates on top of the compound and pre-incubated for 30 minutes at room temperature. Following the incubation, 5 μL of 5×Sox-chromophore (CSox) labeled peptide substrate (AQT0255, AssayQuant) & ATP diluted in assay buffer is added to the plate to initiate the reaction. The assay is incubated at room temperature for 45 min after initiation. The CSox peptide substrate is phosphorylated by CDK2/A2 upon ATP hydrolysis.
(§1) The fluorescent intensity measurement of the assay plate for all assays described above is read on a microplate reader once the assay is initiated and again at the completion of the assay. Phosphorylation of the CSox-based peptide substrate sensor results in an immediate increase in fluorescence. These raw fluorescence intensity values are normalized to calculate percent inhibition, which are fit to a four-parameter logistic curve and IC50 values are calculated. IC50 values are converted to Ki using substrate, KM^app values, and the Cheng-Prusoff equation.

Series [2] has as its target T2, CDK9/CyclinT1 (Homo sapiens, UniProt P50750). As to the kind of experiment: CDK9/CyclinT1 Mobility Shift Assay (Caliper, Table B). The class given is biochemical. The arrangement: Wild-type, full length CDK9 in complex with wildtype, CyclinT1 (1-259): Biortus Cat #BP480/792/691; purchased Biortus BP480/792/691. Conditions: read-out: CDK9/Cyclin T1 Caliper Ki: Average Ki. How it is done: 10 nL of 2000× compound in 100% DMSO is added to a 384-well polypropylene assay plate. 15 μL of 1.3×CDK9/T1 and 1.3× fluorescent substrate (Wild-type, full length CDK9 in complex with wildtype, CyclinT1 (1-259): Biortus Cat #BP480/792/691 and FL-Peptide 34: PerkinElmer Cat #760643) diluted in kinase buffer (50 mM Hepes, 0.01% Brij-35, 10 mM MgCl2, 1 mM EGTA, 0.05% BSA, and 2 mM DTT) is added to the plates on top of the compound, mixed, and pre-incubated for 30 minutes at room temperature. The fluorescently labeled peptide substrate is phosphorylated by CDK9/T1 upon ATP hydrolysis. Following the incubation, 5 μL of 4×ATP diluted in kinase buffer is added to the plate to initiate the reaction. Following the 30-minute incubation, the reaction is stopped by adding 75 μL of stopping buffer containing 0.5 M EDTA.
(§2) The assay plate is then read on a Lab Chip EZ Reader which separates the fluorescently labeled substrate and product peptides through a mobility difference. The phosphorylation of the substrate imparts a negative charge, which allows differences in separation as both are pulled through the microfluidic chip. The ratio of substrate and product values are used to generate percent conversion. These raw percent conversion values are normalized to calculate percent inhibition, which are fit to a four-parameter logistic curve and IC50 values are calculated. IC50 values are converted to Ki using substrate, Kmapp values, and the Cheng-Prusoff equation.
Target sequence in this assay (P50750 whole entry): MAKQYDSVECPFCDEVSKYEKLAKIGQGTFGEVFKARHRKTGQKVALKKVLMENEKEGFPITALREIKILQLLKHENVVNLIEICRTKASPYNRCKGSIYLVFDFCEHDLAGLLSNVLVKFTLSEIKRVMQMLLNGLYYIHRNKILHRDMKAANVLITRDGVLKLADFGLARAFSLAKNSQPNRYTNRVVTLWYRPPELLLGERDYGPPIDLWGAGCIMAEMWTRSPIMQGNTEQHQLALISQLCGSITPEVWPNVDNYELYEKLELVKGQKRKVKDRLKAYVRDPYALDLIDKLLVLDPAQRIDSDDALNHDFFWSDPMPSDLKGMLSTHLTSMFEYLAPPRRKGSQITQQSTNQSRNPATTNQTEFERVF
Target sequence in this assay (O60563 1-259 partner limits assumed): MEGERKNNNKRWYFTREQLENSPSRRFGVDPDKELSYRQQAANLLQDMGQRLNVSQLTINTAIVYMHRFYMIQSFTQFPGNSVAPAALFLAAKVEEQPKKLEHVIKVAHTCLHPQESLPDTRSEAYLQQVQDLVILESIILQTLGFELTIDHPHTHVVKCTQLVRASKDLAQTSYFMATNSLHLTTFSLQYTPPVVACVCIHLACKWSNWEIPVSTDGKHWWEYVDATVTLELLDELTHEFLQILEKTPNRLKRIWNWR

Series [3] has as its target T3, CDK1/CyclinB1 (Homo sapiens, UniProt P06493).
T3 construct: Wild-type, full length CDK1 in complex with wildtype, full length CyclinB1: Carna Cat #04-102; purchased Carna 04-102
As to the kind of experiment: CDK1/CyclinB1 ChEF Assay (Table A).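 Also: Ki reported in nM.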 The class given is biochemical. Particulars: read-out: CDK1/CCNB1 ChEF Ki: Average Ki. How it is done: 500 nL of 50× compound in 100% DMSO is added to a 384-well low volume, white assay plate. 19.5 μL of 1.3×CDK1/CyclinB1 (Wild-type, full length CDK1 in complex with wildtype, full length CyclinB1: Carna Cat #04-102) diluted in assay buffer (50 mM Hepes, 0.01% Brij-35, 10 mM MgCl2, 0.5 mM EGTA, 1% Glycerol, and 1.2 mM DTT) is added to the plates on top of the compound and pre-incubated for 30 minutes at room temperature. Following the incubation, 5 μL of 5×Sox-chromophore (CSox) labeled peptide substrate (AQT0297, AssayQuant) & ATP diluted in assay buffer is added to the plate to initiate the reaction. The assay is incubated at room temperature for 30 min after initiation. The CSox peptide substrate is phosphorylated by CDK1/B1 upon ATP hydrolysis.
as §1

Series [4] has as its target T2, CDK9/CyclinT1. The experiment in a line: CDK9/CyclinT1 ChEF Assay (Table A). The class given is biochemical. The arrangement: Wild-type, full length CDK9 in complex with wildtype, full length CyclinT1: Invitrogen Cat #PV4131; purchased Invitrogen PV4131. Particulars: 10xKm, read-out: CDK9/CCNT1 ChEF 10xKm Ki: Average Ki. How it is done: 500 nL of 50× compound in 100% DMSO is added to a 384-well low volume, white assay plate. 19.5 μL of 1.3×CDK9/CyclinT1 (Wild-type, full length CDK9 in complex with wildtype, full length CyclinT1: Invitrogen Cat #PV4131) diluted in assay buffer (50 mM Hepes, 0.01% Brij-35, 10 mM MgCl2, 0.5 mM EGTA, 1% Glycerol, and 1.2 mM DTT) is added to the plates on top of the compound and pre-incubated for 30 minutes at room temperature. Following the incubation, 5 μL of 5×Sox-chromophore (CSox) labeled peptide substrate (AQT0449, AssayQuant) & ATP diluted in assay buffer is added to the plate to initiate the reaction. The assay is incubated at room temperature for 120 min after initiation. The CSox peptide substrate is phosphorylated by CDK9/T1 upon ATP hydrolysis.
as §1
Target sequence in this assay (P50750 whole entry): as the sequence (P50750 whole entry) above
Target sequence in this assay (O60563 whole entry partner): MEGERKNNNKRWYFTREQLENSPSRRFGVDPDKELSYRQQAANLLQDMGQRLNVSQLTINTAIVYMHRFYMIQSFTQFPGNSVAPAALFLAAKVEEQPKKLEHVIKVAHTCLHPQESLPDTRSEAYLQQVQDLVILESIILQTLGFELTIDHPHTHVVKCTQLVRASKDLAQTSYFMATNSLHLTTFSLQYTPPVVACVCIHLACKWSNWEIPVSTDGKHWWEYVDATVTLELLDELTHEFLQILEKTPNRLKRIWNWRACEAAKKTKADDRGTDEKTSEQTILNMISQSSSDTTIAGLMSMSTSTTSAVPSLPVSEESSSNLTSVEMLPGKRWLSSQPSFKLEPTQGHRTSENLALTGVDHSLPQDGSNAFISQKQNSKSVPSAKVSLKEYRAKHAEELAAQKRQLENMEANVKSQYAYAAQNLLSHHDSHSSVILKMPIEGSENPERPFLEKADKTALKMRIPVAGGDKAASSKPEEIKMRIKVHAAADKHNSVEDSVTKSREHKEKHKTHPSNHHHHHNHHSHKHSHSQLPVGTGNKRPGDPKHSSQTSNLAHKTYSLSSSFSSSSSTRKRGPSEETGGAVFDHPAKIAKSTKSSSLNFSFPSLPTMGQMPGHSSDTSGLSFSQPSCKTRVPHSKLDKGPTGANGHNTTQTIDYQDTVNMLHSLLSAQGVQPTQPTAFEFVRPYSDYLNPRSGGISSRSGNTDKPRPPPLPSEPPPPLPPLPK

The target in series [5] is T3, CDK1/CyclinB1. The experiment in a line: CDK1/Cyclin B1 Mobility Shift Assay (Caliper, Table B). Particulars: read-out: CDK1/CCNB1 Caliper Ki: Average Ki. It counts as biochemical. On the procedure: 10 nL of 2000× compound in 100% DMSO is added to a 384-well polypropylene assay plate. 15 μL of 1.3×CDK1/B1 and 1.3× fluorescent substrate (Wild-type, full length CDK1 in complex with wildtype, full length CyclinB1: Carna Cat #04-102 and FL-Peptide 29: PerkinElmer Cat #760429) diluted in kinase buffer (50 mM Hepes, 0.01% Brij-35, 10 mM MgCl2, 1 mM EGTA, 0.05% BSA, and 2 mM DTT) is added to the plates on top of the compound, mixed, and pre-incubated for 30 minutes at room temperature. The fluorescently labeled peptide substrate is phosphorylated by CDK1/B1 upon ATP hydrolysis. Following the incubation, 5 μL of 4×ATP diluted in kinase buffer is added to the plate to initiate the reaction. Following the 30-minute incubation, the reaction is stopped by adding 75 μL of stopping buffer containing 0.5 M EDTA.
as §2

For series [6], the target named is T1, CDK2/CyclinA2. As to the kind of experiment: CDK2/Cyclin A2 Mobility Shift Assay (Caliper, Table B). Conditions: for Ki: Caliper mobility shift, 10xKm, read-out: CDK2/CCNA2 Caliper 10xKm Ki: Average Ki. The class given is biochemical. On the procedure:
10 nL of 2000× compound in 100% DMSO is added to a 384-well polypropylene assay plate. 15 μL of 1.3×CDK2/A2 and 1.3× fluorescent substrate (Wild-type, full length CDK2 in complex with wildtype, full length CyclinA2: Carna Cat #04-103 and FL-Peptide 18: PerkinElmer Cat #760362) diluted in kinase buffer (50 mM Hepes, 0.01% Brij-35, 10 mM MgCl2, 1 mM EGTA, 0.05% BSA, and 2 mM DTT) is added to the plates on top of the compound, mixed, and pre-incubated for 30 minutes at room temperature. The fluorescently labeled peptide substrate is phosphorylated by CDK2/A2 upon ATP hydrolysis. Following the incubation, 5 μL of 4×ATP diluted in kinase buffer is added to the plate to initiate the reaction. Following the 30-minute incubation, the reaction is stopped by adding 75 μL of stopping buffer containing 0.5 M EDTA.
as §2, with “Ki through” for “Ki”, “substrate and Km^app” for “substrate, Kmapp”

T3 sequence (P06493 whole entry): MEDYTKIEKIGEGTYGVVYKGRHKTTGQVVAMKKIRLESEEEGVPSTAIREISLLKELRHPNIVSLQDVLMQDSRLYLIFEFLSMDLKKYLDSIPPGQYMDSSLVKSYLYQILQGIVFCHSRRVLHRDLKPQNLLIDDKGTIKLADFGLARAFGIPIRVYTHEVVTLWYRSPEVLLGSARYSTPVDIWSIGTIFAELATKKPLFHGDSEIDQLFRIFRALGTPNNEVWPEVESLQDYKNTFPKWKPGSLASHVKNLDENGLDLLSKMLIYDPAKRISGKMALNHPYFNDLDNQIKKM
T3 sequence (P14635 whole entry partner): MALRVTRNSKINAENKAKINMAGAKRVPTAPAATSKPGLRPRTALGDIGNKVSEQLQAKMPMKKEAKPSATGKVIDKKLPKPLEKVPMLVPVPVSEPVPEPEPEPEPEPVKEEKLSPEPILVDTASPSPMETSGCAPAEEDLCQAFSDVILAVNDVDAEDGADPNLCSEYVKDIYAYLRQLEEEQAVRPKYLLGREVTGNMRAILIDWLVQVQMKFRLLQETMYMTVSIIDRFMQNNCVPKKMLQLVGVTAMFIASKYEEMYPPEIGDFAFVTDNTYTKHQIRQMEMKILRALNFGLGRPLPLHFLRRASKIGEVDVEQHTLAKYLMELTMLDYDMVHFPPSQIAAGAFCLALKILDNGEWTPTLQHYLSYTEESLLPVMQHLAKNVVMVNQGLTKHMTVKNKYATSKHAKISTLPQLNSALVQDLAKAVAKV

Where the note is “from CC(C)(C)OC(=O)NCCCCCCNS(=O)(=O)C1CCC(Nc2cc([C@H]3CC[C@@H](OC(=O)Oc4ccc([N+](=O)[O-])cc4)C3)n(C(C)(C)C)n2)CC1, other bond, DIPEA, DCE, 4.26 mM, 25.0 °C, 18.0 h, 2 steps”, `CC(C)(C)n1nc2cc1[C@H]1CC[C@H](C1)OC(=O)NCCCCCCNS(=O)(=O)C1CCC(CC1)N2` had a ring closure, yield of all isomers of 50%.

With `CC(C)(C)n1nc2cc1[C@H]1CC[C@H](C1)OC(=O)NCCOCCNS(=O)(=O)c1ccc(c(F)c1)N2`, under “from CC(C)(C)OC(=O)NCCOCCNS(=O)(=O)c1ccc(Nc2cc([C@H]3CC[C@@H](OC(=O)Oc4ccc([N+](=O)[O-])cc4)C3)n(C(C)(C)C)n2)c(F)c1, other bond, DIPEA, DCE, 5.25 mM, 25.0 °C, 18.0 h, 2 steps”, the ring closure, yield of all isomers was 62.3%.

`Cn1ncc2c1C(=O)NCCCCCOc1nc(ncc1Br)NC1CCN(CC1)S2(=O)=O` showed a ring closure, yield of all isomers (from Cn1ncc(S(=O)(=O)N2CCC(N)CC2)c1C(=O)NCCCCCOc1nc(Cl)ncc1Br, snar bond, K2CO3, DMSO, 6.02 mM, 110.0 °C, 2.0 h) of 33%.

Where the note is “from CC(C)(C)OC(=O)NCCCCCNc1cc(Nc2ncc(C3CCC(OC(=O)Oc4ccc([N+](=O)[O-])cc4)C3)cn2)ccc1S(=O)(=O)NC(=O)OC(C)(C)C, other bond, DIEA, DMF, 75.0 mM, 50.0 °C, 3.0 h, 2 steps”, `NS(=O)(=O)c1ccc2cc1NCCCCCNC(=O)OC1CCC(C1)c1cnc(nc1)N2` (centres unmarked) returned a ring closure, yield of all isomers of 39.5%.

With `NS(=O)(=O)c1ccc2cc1OCCCCCNC(=O)OC1CCC(C1)c1cnc(nc1)N2` (centres unmarked), for the setting “from NCCCCCOc1cc(Nc2ncc(C3CCC(OC(=O)Oc4ccc([N+](=O)[O-])cc4)C3)cn2)ccc1S(N)(=O)=O, other bond, DIEA, DMF, 41.5 mM, 50.0 °C, 2.0 h”, the ring closure, yield of all isomers worked out at 11.1%.

For the compound `O=C1NCCCCn2cc(cn2)S(=O)(=O)N2CCC(CC2)Nc2cc([nH]n2)[C@H]2CC[C@H](C2)O1` [Compound 94, (11S,13R,24Z,64E)-21H,61H-13-oxa-5-thia-3,11-diaza-4(4,1)-piperidina-2(5,3),6(4,1)-dipyrazola-1(1,3)-cyclopentanacyclotridecaphan-12-one 5,5-dioxide], the Ki is 25 to 100 nM at CDK2/CyclinA2 [1] (10xKm, read-out: CDK2/CCNA2 ChEF 10xKm Ki: Average Ki); 25 to 100 nM at CDK9/CyclinT1 [2]; no less than 100 nM at CDK1/CyclinB1 [3]; 1 to 25 nM at CDK9/CyclinT1 [4]. In addition, the “CDK2/CCNA2 ChEF 10xKm Ki: CDK2/A2 Selectivity over CDK9/T1” value at CDK2/CyclinA2 [1] (selectivity over CDK9/T1) was “A (A>10)”.

Regarding `O=C1NCCCCCCCOc2cccc(n2)Nc2ncc(cn2)[C@@H]2CC[C@@H](C2)O1` [Compound 111], the Ki at CDK1/CyclinB1 [5] is no less than 100 nM. Besides, on CDK9/CyclinT1 [2], the Ki was no less than 100 nM. In addition, on CDK2/CyclinA2 [6], the Ki fell in the range of 25 to 100 nM, the “CDK2/CCNA2 Caliper 10xKm Ki: CDK2/A2 Selectivity over CDK1/B1” value is “C (C<5)” and the “CDK2/CCNA2 Caliper 10xKm Ki: CDK2/A2 Selectivity over CDK9” value is recorded as “B (5≤B<10)”.

Take `O=C1NCCCCCCOc2cccc(n2)Nc2ncc(cn2)[C@@H]2CC[C@@H](C2)O1` [Compound 112]: the Ki on CDK1/CyclinB1 [5] is no less than 100 nM. On CDK9/CyclinT1 [2], the Ki was no less than 100 nM. Further, at CDK2/CyclinA2 [6], the Ki is 25 to 100 nM, the “CDK2/CCNA2 Caliper 10xKm Ki: CDK2/A2 Selectivity over CDK1/B1” value was “B (5≤B<10)” and the “CDK2/CCNA2 Caliper 10xKm Ki: CDK2/A2 Selectivity over CDK9” value is on record as “B (5≤B<10)”.

Turning to `O=C1NCCCCCOc2cccc(n2)Nc2ncc(cn2)[C@@H]2CC[C@@H](C2)O1` [Compound 113], at CDK1/CyclinB1 [5], the Ki was no less than 100 nM. Besides, at CDK2/CyclinA2 [6], the Ki was no less than 100 nM, the “CDK2/CCNA2 Caliper 10xKm Ki: CDK2/A2 Selectivity over CDK1/B1” value was “B (5≤B<10)” and the “CDK2/CCNA2 Caliper 10xKm Ki: CDK2/A2 Selectivity over CDK9” value was “B (5≤B<10)”.

As for `O=C1NCCCCOc2cccc(n2)Nc2ncc(cn2)[C@@H]2CC[C@@H](C2)O1` [Compound 114], the Ki on CDK1/CyclinB1 [5] is no less than 100 nM. Further, at CDK2/CyclinA2 [6], the Ki lay within 25 to 100 nM, the “CDK2/CCNA2 Caliper 10xKm Ki: CDK2/A2 Selectivity over CDK1/B1” value is given as “B (5≤B<10)” and the “CDK2/CCNA2 Caliper 10xKm Ki: CDK2/A2 Selectivity over CDK9” value was “B (5≤B<10)”.

Regarding `O=C1NCCCCCCNS(=O)(=O)c2ccc(cc2)Nc2ncc(cn2)[C@@H]2CC[C@@H](C2)O1` [Compound 115], the Ki on CDK1/CyclinB1 [5] was no less than 100 nM. Also, at CDK2/CyclinA2 [6], the Ki was no less than 100 nM, the “CDK2/CCNA2 Caliper 10xKm Ki: CDK2/A2 Selectivity over CDK1/B1” value is recorded as “B (5≤B<10)” and the “CDK2/CCNA2 Caliper 10xKm Ki: CDK2/A2 Selectivity over CDK9” value is given as “C (C<5)”.
